The test system of data set [1] is subjects with mild to moderate AD. Kind of data set: Phase Ib multiple ascending dose study, safety and tolerability. It is filed as in vivo. Conditions: human, 50, 100 or 125 mg PO daily. The text has this: Subjects were enrolled in three cohorts of 8 subjects each.
Data set [2] concerns mice with closed head injury (CHI) and chronic variable stress (CVS). In words: Immunohistochemistry of cerebral cortex after head injury plus stress. It is filed as in vivo, mouse. As to conditions: subacute TBI/Stress mice. The text has this: FIGS. 16A-16F illustrate the finding that AZD0530 treatment prevents phospho-Tau accumulation after head injury plus stress. […] Boxed area is shown at higher magnification inset. Scale bar, m. FIG. 16B: PHF-1 IHC quantification using ImageJ software measuring total stained area, yielded significant differences amongst the three groups. Data are mean±SEM. n=5/group, each dot is one mouse. One way ANOVA: F(2,12)=9.967, p=0.0028, Tukey's multiple comparison test: SV vs IV: p=0.0077, IV vs IA: p=0.0046. […] Scale bar, 20 μm. […] Data are mean±SEM. n=5/group, each dot is one mouse. […] Scale bar, 20 μm. […] Data are mean±SEM. n=5/group, each dot is one mouse.
Immunohistochemistry was performed as previously described (Kaufman et al., 2015, Ann Neurol 77:953-971) with slight modifications. Forty m coronal sections of the right hemisphere were cut with a Leica VT1000S Vibratome. Antigen retrieval was performed on the forty m free-floating sections by incubating three slices from each mouse in 1× Reveal decloaker buffer (Biocare Medical) in 24-well-plates for 10 minutes at 90° C. in an oven and then cooled down at room temperature for 10 minutes. The antigen retrieval step was done for PHF1, AT8, and GFAP stainings. Sections were permeabilized with 0.1% Triton X-100 at room temperature for 5 minutes for PHF1 and SV2A staining and for 30 minutes for CD68/Ibal, AT8, and GFAP. All sections were blocked with 10% donkey, horse, or goat serum in PBS for one hour at room temperature. The sections were then incubated in primary antibody in 4% donkey, horse, or goat serum in PBS overnight at room temperature. For SV2A and PHF1 stainings, primary antibodies were incubated at 4° C. rather than room temperature. […]
For imaging and analysis of sections from the transgenic Tauopathy studies, Nikon Eclipse Ti Spinning Disc Confocal Microscope was used with a 40×1.3 NA oil-immersion lens in Cargille immersion oil. […] The dentate gyrus, CA1, and CA3 of mice were imaged and the percent positive area for each staining was analyzed with a macro in ImageJ or a pipeline in CellProfiler. […]

Data set [3] can be described thus: Dog exposure (Cmax and AUC) with oral dosing. It is filed as in vivo.
The test system of a further data set is solid tumors. Conditions: single agent, specific oncological indications; cited from earlier work.
Data set [4] has as its system APPswe/PS1ΔE9 transgenic mice. In words: Histology of AD transgenic mice (Aβ plaque, PSD-95, SV2A). Conditions: for synapse density (PSD-95, SV2A) in dentate gyrus: 5 weeks. It is filed as in vivo, mouse. An excerpt:
FIGS. 10A-10C illustrate the finding that synaptic markers recover after treatment with a Fyn inhibitor. […] FIG. 10A: Representative sections from the labeled groups were stained with anti-PSD-95 antibody and the molecular layer of the dentate gyrus was imaged with a confocal microscope with a 60× objective lens. Scale bar, 3 μm. FIG. 10B: Fractional area of immunoreactive puncta for PSD-95. p<0.05, ANOVA with post-hoc pairwise Tukey comparisons. Mean±SEM, n=5-10 mice per group, two images per mouse. FIG. 10C: Fractional area of immunoreactive puncta for SV2. p<0.05, ANOVA with post-hoc pairwise Fisher's least significant difference (LSD). Mean±SEM, n=5-10 mice per group, two images per mouse.
The animals were familiarized with two objects on the first day of testing, and then observed on the next day with one novel object and one familiar object. The time spent exploring each object was scored by an observed unaware of drug treatment (FIG. 5). WT mice spend more time with the novel object. However, vehicle-treated APPswe/PS1ΔE9 mice spent equal time with both objects, consistent with impaired memory of familiarization on the previous day. […] The tissue from these mice is analyzed histologically, e.g., for Aβ plaque and synaptic markers (which are reduced in the transgenic mice). […] Without wishing to be limited by theory, this finding is consistent with the fact that saracatinib blocks the downstream action of Aβo on neurons, but not the upstream production of Aβ.
Upon analysis of a post-synaptic marker (PSD-95) or a presynaptic marker (SV2A) in the dentate gyrus of the hippocampus, an saracatinib-induced restoration of synapse density was observed. The twelve-month old transgenic mice have lost approximately 30-40% of synapses by the immunohistological measures.

Each structure is given as a SMILES string.

Consider `CN1CCN(CCOc2cc(OC3CCOCC3)c3c(Nc4c(Cl)ccc5c4OCO5)ncnc3c2)CC1` [saracatinib, N-(5-chloro-benzo[d][1,3]dioxol-4-yl)-7-(2-(4-methylpiperazin-1-yl)ethoxy)-5-(tetrahydro-2H-pyran-4-yloxy)quinazolin-4-amine], for which, in data set [1], the hematological changes result is on record as “no significant hematological changes” and the “serious adverse events, laboratory abnormalities, early terminations” value is reported as “no apparent study-related serious adverse events (SAEs), significant laboratory abnormalities, or early terminations”. The “PHF-1 immunoreactivity area in cerebral cortex” value in data set [2] (0.5-1.0 mm medial to injury site) is listed as “dramatically reduced”. In data set [2] (three groups), the “GFAP IHC % area” value is reported as “did not result in groups differences” and the “total Tau IHC mean intensity” value is listed as “did not show significant differences”. The “human daily dose equivalent” value in data set [3] (dog 2 mg/kg/d) is recorded as 50 mg. In addition, the “human dose of equivalent exposure (Cmax and AUC)” value in data set [3] (dog 5 mg/kg, saracatinib free base in human) is reported as 125 mg. Also, the “dose dependence of exposure” value in data set [3] (dog, multiple dosing, 0.5 to 5 mg/kg oral daily dose) is on record as “linear”. Besides, the “benefit in Phase II studies” value with solid tumors is “limited benefit”. Besides, in data set [4] (APPswe/PS1ΔE9 mice), the Aβ plaque content result is on record as “No significant changes” and the “synapse density (PSD-95, SV2A) in dentate gyrus” value is given as “restored to WT control levels”. The “synapse density (PSD-95, SV2A) in dentate gyrus” value in data set [4] (WT mice) is “no change”.

The values are drawn from patent US11241434B2, “Compositions and methods for improving cognition in a subject” (Yale University, priority 2013, dated 2022).
